The values that follow come from US6479487B1, “6, 9-disubstituted 2-[trans-(4-aminocyclohexyl)amino] purines” (Aventis Pharmaceuticals Inc., priority 1998, dated 2002).

In experiment [1] the test system is Colo-205. The experiment in a line: In vitro tumor cell proliferation, Colo-205. Type of experiment: cell-based. Particulars: values given with an undefined *, read-out: In vitro Tumor Cell Proliferation (IC50, μM) Colon Colo-205. The procedure, abridged:
(§1)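 SRB read-out: cells seeded overnight, 37° C; drug 3 d, medium plus fresh drug replaced, +4 d; TCA fix 60 min 4° C, 0.4% SRB stain 30 min. Alt. CyQUANT: drug 3 d, plates frozen −80° C before read.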

The test system of experiment [2] is HT-29. Briefly: In vitro tumor cell proliferation, HT-29. Type of experiment: cell-based, human. As to conditions: many values given with an undefined *, read-out: In vitro Tumor Cell Proliferation (IC50, μM) Colon HT-29. The procedure, abridged:
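HT-29 cells seeded overnight at 37° C, then exposed to drug for 3 days, refed with fresh drug-containing medium for 4 more days. Proliferation read by sulforhodamine B staining after TCA fixation; alternatively by CyQUANT after freezing plates at −80° C following 3 days' drug exposure.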

In experiment [3] the target is T1, cdk4/cyclin D1 (Homo sapiens, UniProt P11802).
T1 construct: made in house; host or cells: Sf9 insect cells (Bac-to-Bac baculovirus, pFastBac)
T1 sequence (P11802 whole entry): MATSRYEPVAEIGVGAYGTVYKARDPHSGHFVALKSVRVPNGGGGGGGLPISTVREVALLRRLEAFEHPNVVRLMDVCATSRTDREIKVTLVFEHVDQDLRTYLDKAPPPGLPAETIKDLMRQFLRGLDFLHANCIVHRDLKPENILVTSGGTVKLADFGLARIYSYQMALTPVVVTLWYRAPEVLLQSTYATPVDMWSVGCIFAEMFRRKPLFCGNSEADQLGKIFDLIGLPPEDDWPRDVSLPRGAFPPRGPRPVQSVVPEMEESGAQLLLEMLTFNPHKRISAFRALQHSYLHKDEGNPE
T1 sequence (P24385 whole entry partner): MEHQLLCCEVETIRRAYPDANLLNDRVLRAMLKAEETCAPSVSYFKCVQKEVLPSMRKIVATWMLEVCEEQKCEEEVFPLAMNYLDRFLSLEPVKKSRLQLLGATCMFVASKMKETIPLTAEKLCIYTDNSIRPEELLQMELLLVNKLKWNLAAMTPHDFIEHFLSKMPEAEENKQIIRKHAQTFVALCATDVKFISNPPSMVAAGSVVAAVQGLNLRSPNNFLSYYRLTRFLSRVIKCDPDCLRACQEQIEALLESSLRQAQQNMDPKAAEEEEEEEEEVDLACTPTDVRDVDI
Briefly: Cyclin-dependent Kinase 4 Assay (cdk4/cyclin D1, GST-Rb substrate). The experiment is classed as biochemical. As to conditions: cdk4/cyclin D1 insect cell lysate, 10 μM ATP, 30 min at 37° C., several values = separate determinations, read-out: CDK4 Inhibition IC50. In short, it runs like this: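 Insect-cell lysate of coexpressed cdk4/cyclin D1 (0.1 μg) acts on GST-Rb (0.5 μg) bound to glutathione-Sepharose, in 50 mM HEPES pH 7.5, 10 mM MgCl2, 1 mM EGTA. Reaction runs 30 min at 37 °C, then is stopped by filtration and TNEN washes. Rb phosphorylation read by scintillation counting; IC50 derived.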

Experiment [4] has as its system A549. Briefly: In vitro tumor cell proliferation, A549. Type of experiment: cell-based, human. Particulars: many values given with an undefined *, read-out: In vitro Tumor Cell Proliferation (IC50, μM) Lung A549. The procedure, abridged:
as §1

Experiment [5] has as its system DU145. Briefly: In vitro tumor cell proliferation, DU145. The experiment is classed as cell-based, human. As to conditions: many values given with an undefined *, read-out: In vitro Tumor Cell Proliferation (IC50, μM) Prostate DU145. In short, it runs like this: as §1
The subject of experiment [6] is PC-3. Briefly: In vitro tumor cell proliferation, PC-3. Type of experiment: cell-based, human. As to conditions: many values given with an undefined *, read-out: In vitro Tumor Cell Proliferation (IC50, μM) Prostate PC-3. The procedure, abridged: as §1
Experiment [7] concerns DMS-114. The experiment in a line: In vitro tumor cell proliferation, DMS-114. The experiment is classed as cell-based, human. As to conditions: many values given with an undefined *, read-out: In vitro Tumor Cell Proliferation (IC50, μM) Lung DMS-114. In short, it runs like this: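 Human small cell lung carcinoma DMS-114 cells plated overnight, then drug-treated for 3 days, medium and drug renewed, and incubated 4 more days. Growth read by sulforhodamine B staining after TCA fixation; alternatively by CyQUANT after 3 days' drug exposure and freezing at −80 °C.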

Experiment [8] has as its system MDA-MB-231. The experiment in a line: In vitro tumor cell proliferation, MDA-MB-231. The experiment is classed as cell-based, human. Particulars: sulforhodamine B or CyQUANT assay, many values given with an undefined *, read-out: In vitro Tumor Cell Proliferation (IC50, μM) Breast MDA-MB-231. The procedure, abridged:
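Cells plated overnight at 37 °C, then exposed to drug for 3 days, refed with fresh drug and incubated 4 more days. Read-out by sulforhodamine B staining after TCA fixation; alternatively, CyQUANT after 3-day drug exposure and freezing at −80 °C.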

In experiment [9] the test system is MDA-MB-435. Briefly: In vitro tumor cell proliferation, MDA-MB-435. Type of experiment: cell-based. Particulars: values given with an undefined *, read-out: In vitro Tumor Cell Proliferation (IC50, μM) Breast MDA-MB-435. In short, it runs like this:
as §1

In experiment [10] the target is T2, cdk2/cyclin E (Homo sapiens, UniProt P24941).
T2 construct: made in house; host or cells: insect cells (baculovirus co-infection)
Briefly: Cyclin-Dependent Kinase 2 Assay (cdk2/cyclin E, GST-Rb substrate). The experiment is classed as biochemical. Particulars: recombinant cdk2/cyclin E, 10 μM ATP, 30 min at 30° C., several values in a cell = separate determinations, read-out: CDK-2 Inhibition IC50. How it is done:
Substrate: GST-Rb as described above for cdk4/cyclin D1
Assay conditions for cdk2/cyclin E were identical to those for cdk4/cyclin D1 including the substrate. The concentration of recombinant cdk2/cyclin E in the assay was 0.1 μg per 100 μl assay. Incubation was for 30 min at 30° C.

Setting [11] is: Homo sapiens, COLO 205, Colo-205.
Setting [12] is: Homo sapiens, MDA-MB-231, MDA-MB-231.
The mark [13] stands for this setting: Homo sapiens, MDA-MB-435, MDA-MB-435.

Several values for one entry are separate records, joined by “and”; a condition that tells them apart may be missing. Equal values may be shown once. Where a name gives a salt, the structure may show the parent alone. Read-outs that look alike come from different tables or passages of the source.

Turning to `N[C@H]1CC[C@H](Nc2nc(NC3CCN(Cc4ccc(F)cc4F)CC3)c3ncn(C4CCCC4)c3n2)CC1` [Example 147-h, 2-[Trans-(4-aminocyclohexyl)amino]-6-[4-[1-(2,4-difluorobenzyl)piperidinylamino]-9-cyclopentylpurinetrihydrochloride], the IC50 was 0.21 µM in experiment [1] (Colo-205, trihydrochloride); 0.34 µM in experiment [1] (setting [11]); 0.47 µM in experiment [2] (HT-29, trihydrochloride); 0.42 µM in experiment [2] (Homo sapiens, HT-29, HT-29); 2800 nM and 1800 nM in [3]; 0.16 µM in [4] (A549, trihydrochloride). Moreover, the IC50 in [4] (Homo sapiens, A549, A549) was determined as 0.22 µM; in [5] (DU145, trihydrochloride), 0.36 µM; in [5] (Homo sapiens, DU-145, DU145), 0.34 µM; in experiment [6] (Homo sapiens, PC-3, PC-3), 0.33 µM; in experiment [6] (PC-3, trihydrochloride), 0.58 µM; in [7] (DMS-114, trihydrochloride) it was 0.47 µM. For the same molecule, the IC50 is 0.94 µM in experiment [7] (Homo sapiens, DMS-114, DMS-114); 0.47 µM in [8] (setting [12]); 0.48 µM in experiment [9] (setting [13]); 0.78 µM in [9] (MDA-MB-435, trihydrochloride); 100 nM and 240 nM in experiment [10].

Turning to `N[C@H]1CC[C@H](Nc2nc(NC3CCN(Cc4cccc(F)c4)CC3)c3ncn(C4CCCC4)c3n2)CC1` [Example 147-j, 2-[Trans-(4-aminocyclohexyl)amino]-6-[4-[1-(3-fluorobenzyl)]piperidinylamino]-9-cyclopentylpurine trihydrochloride], the IC50 was 0.17 µM in [1] (setting [11]); 0.22 µM in experiment [2] (HT-29, trihydrochloride); 0.3 µM in experiment [2] (Homo sapiens, HT-29, HT-29); 1300 nM and 720 nM in experiment [3]; 0.14 µM in experiment [4] (A549, trihydrochloride); 0.15 µM in experiment [4] (Homo sapiens, A549, A549). Besides, the IC50 was 0.2 µM in [5] (DU145, trihydrochloride); 0.21 µM in experiment [5] (Homo sapiens, DU-145, DU145); 0.17 µM in experiment [6] (Homo sapiens, PC-3, PC-3); 0.26 µM in [6] (PC-3, trihydrochloride); 0.25 µM in experiment [7] (DMS-114, trihydrochloride); 0.37 µM in experiment [7] (Homo sapiens, DMS-114, DMS-114). Further, the IC50 in experiment [8] (setting [12]) is 0.2 µM; in experiment [8] (MDA-MB-231, trihydrochloride), 0.21 µM; in [9] (setting [13]), 0.27 µM; in [9] (MDA-MB-435, trihydrochloride), 0.3 µM; in experiment [10], 200 nM and 210 nM.

Consider `N[C@H]1CC[C@H](Nc2nc(NC3CCN(Cc4ccccc4F)CC3)c3ncn(C4CCCC4)c3n2)CC1` [Example 147-k, 2-[Trans-(4-aminocyclohexyl)amino]-6-[4-[1-(2-fluorobenzyl)]piperidinylamino]-9-cyclopentylpurine trihydrochloride], for which the IC50 was determined as 0.15 µM in experiment [1] (Colo-205, trihydrochloride); 0.26 µM in experiment [1] (setting [11]); 0.26 µM in [2] (HT-29, trihydrochloride); 0.4 µM in experiment [2] (Homo sapiens, HT-29, HT-29); 2900 nM in [3]; 0.16 µM in [4] (A549, trihydrochloride). Also, the IC50 came to 0.29 µM in [4] (Homo sapiens, A549, A549); 0.15 µM in experiment [5] (DU145, trihydrochloride); 0.3 µM in experiment [5] (Homo sapiens, DU-145, DU145); 0.35 µM in experiment [6] (Homo sapiens, PC-3, PC-3); 0.34 µM in experiment [6] (PC-3, trihydrochloride); 0.29 µM in [7] (DMS-114, trihydrochloride). For the same molecule, the IC50 was 0.45 µM in [7] (Homo sapiens, DMS-114, DMS-114); 0.32 µM in experiment [8] (MDA-MB-231, trihydrochloride); 0.39 µM in experiment [9] (setting [13]); 200 nM and 170 nM in experiment [10].

For `N[C@H]1CC[C@H](Nc2nc(NC3CCN(Cc4ccc(F)cc4)CC3)c3ncn(C4CCCC4)c3n2)CC1` [Example 147-l, 2-[Trans-(4-aminocyclohexyl)amino]-6-[4-[1-(4-fluorobenzyl)]piperidinylamino]-9-cyclopentylpurine trihydrochloride], the IC50 is 0.19 µM in experiment [1] (Colo-205, trihydrochloride); 0.26 µM in experiment [1] (setting [11]); 0.4 µM in experiment [2] (HT-29, trihydrochloride); 0.37 µM in experiment [2] (Homo sapiens, HT-29, HT-29); 2000 nM and 2700 nM and 1300 nM in [3]; 0.19 µM in [4] (A549, trihydrochloride). Besides, the IC50 was 0.26 µM in experiment [4] (Homo sapiens, A549, A549); 0.29 µM in [5] (DU145, trihydrochloride); 0.3 µM in experiment [5] (Homo sapiens, DU-145, DU145); 0.41 µM in experiment [6] (PC-3, trihydrochloride); 0.43 µM in experiment [7] (DMS-114, trihydrochloride); 0.48 µM in experiment [7] (Homo sapiens, DMS-114, DMS-114). Also, the IC50 is 0.33 µM in experiment [8] (setting [12]); 0.29 µM in [8] (MDA-MB-231, trihydrochloride); 0.46 µM in experiment [9] (setting [13]); 260 nM and 170 nM and 280 nM in experiment [10].

With `N[C@H]1CC[C@H](Nc2nc(NC3CCN(Cc4cccc(C(F)(F)F)c4)CC3)c3ncn(C4CCCC4)c3n2)CC1` [Example 147-m, 2-[Trans-(4-aminocyclohexyl)amino]-6-[4-[1-(3-trifluoromethylbenzyl)]piperidinylamino]-cyclopentylpurine trihydrochloride], the IC50 in experiment [1] (Colo-205, trihydrochloride) worked out at 0.17 µM; in [1] (setting [11]), 0.18 µM; in [2] (HT-29, trihydrochloride) it was 0.35 µM; in experiment [2] (Homo sapiens, HT-29, HT-29), 0.34 µM; in experiment [3], 370 nM; in experiment [4] (A549, trihydrochloride), 0.22 µM. In addition, the IC50 in [4] (Homo sapiens, A549, A549) is 0.17 µM; in [5] (DU145, trihydrochloride) it was 0.35 µM; in [5] (Homo sapiens, DU-145, DU145) it was 0.32 µM; in experiment [6] (Homo sapiens, PC-3, PC-3), 0.25 µM; in [6] (PC-3, trihydrochloride) it was 0.5 µM; in experiment [7] (DMS-114, trihydrochloride), 0.32 µM. The IC50 in experiment [7] (Homo sapiens, DMS-114, DMS-114) was 0.29 µM; in experiment [8] (setting [12]) it was 0.32 µM; in experiment [8] (MDA-MB-231, trihydrochloride), 0.33 µM; in experiment [9] (setting [13]) it was 0.42 µM; in experiment [9] (MDA-MB-435, trihydrochloride), 0.56 µM; in experiment [10] it was 65 nM and 77 nM.

As for `N[C@H]1CC[C@H](Nc2nc(NC3CCN(Cc4c(F)cccc4Cl)CC3)c3ncn(C4CCCC4)c3n2)CC1` [Example 147-n, 2-[Trans-(4-aminocyclohexyl)amino]-6-[4-[1-(2-chloro-6-fluorobenzyl)]piperidinylamino]-cyclopentylpurine trihydrochloride], the IC50 is 0.32 µM in experiment [1] (Colo-205, trihydrochloride); 0.44 µM in experiment [1] (setting [11]); 0.64 µM in experiment [2] (HT-29, trihydrochloride); 0.71 µM in experiment [2] (Homo sapiens, HT-29, HT-29); 1600 nM and 3100 nM in experiment [3]; 0.33 µM in experiment [4] (A549, trihydrochloride). In addition, the IC50 in experiment [4] (Homo sapiens, A549, A549) was 0.39 µM; in experiment [5] (DU145, trihydrochloride) it was 0.59 µM; in experiment [5] (Homo sapiens, DU-145, DU145), 0.6 µM; in experiment [6] (Homo sapiens, PC-3, PC-3), 0.73 µM; in [6] (PC-3, trihydrochloride), 0.93 µM; in [7] (DMS-114, trihydrochloride) it was 0.8 µM. In addition, the IC50 was 1.1 µM in [7] (Homo sapiens, DMS-114, DMS-114); 0.81 µM in [8] (setting [12]); 0.72 µM in [8] (MDA-MB-231, trihydrochloride); 0.89 µM in experiment [9] (setting [13]); 1 µM in [9] (MDA-MB-435, trihydrochloride); 160 nM and 340 nM and 440 nM in [10].
